# Source: US9073881B2, “Benzoic acid derivatives” (HOFFMANN-LA ROCHE INC., priority 2011, dated 2015)
# Target: Human eIF4E (Homo sapiens (Human), UniProt P06730)
# Experiment: Human eIF4E/4G binding assay (time-resolved fluorescence, HH-eIF4E and biotin-labeled 4G2 peptide)
# Details: inhibition of binding of His-tagged human eIF4E (aa 28-217) to biotin-labeled 4G2 peptide
# Description: The protein was solubilized with 8 M urea and purified under denaturing conditions using nickel-charged HisTrap HP columns (GE Healthcare). The protein was refolded by diluting to approximately 0.25 mg/mL with 6 M urea, 20 mM Hepes pH 7.0, 500 mM NaCl, 1 mM DTT, 1 mM EDTA, and 0.5 M arginine.HCl, and then dialyzing overnight into the same buffer without the urea. The protein was further dialyzed into 20 mM Hepes pH 6.5, 50 mM NaCl, 1 mM EDTA, and 1 mM DTT, filtered, and then concentrated using Hitrap SP sepharose FF columns (GE Healthcare). The protein was dialyzed into 20 mM Hepes pH 7.0, 500 mM NaCl, 5 mM DTT, and 10% glycerol and stored at −80° C. until use. Test compounds (1.6 mM stock in DMSO) were diluted 3 fold in series in DMSO. Compound solutions were diluted 4 fold in Assay Buffer (50 mM sodium phosphate, pH 6.5, 50 mM KCl, 1 mM DTT and 0.5 mg/mL gammaglobulin). […] The samples were incubated at room temperature for 20 minutes. […] IC50 values were calculated using Condoseo software (Genedata AG).
# Human eIF4E, sequence (P06730 28-217): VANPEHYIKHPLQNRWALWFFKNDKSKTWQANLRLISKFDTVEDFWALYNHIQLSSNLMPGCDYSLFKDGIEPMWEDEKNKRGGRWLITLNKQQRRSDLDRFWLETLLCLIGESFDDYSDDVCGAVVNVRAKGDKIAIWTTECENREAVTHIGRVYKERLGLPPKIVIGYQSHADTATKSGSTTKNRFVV
row,IC50 [nM],SMILES
1,1900,"O=C(O)c1cc(-c2nc(-c3ccc(Cl)c(Cl)c3)cs2)ccc1-c1cccc(F)c1F [Example 138, 4-[4-(3,4-Dichloro-phenyl)-thiazol-2-yl]-2′,3′-difluoro-biphenyl-2-carboxylic acid]"
2,3000,"O=C(O)c1cc(-c2nc(-c3ccc(Cl)c(Cl)c3)cs2)ccc1-c1ccc(C(F)(F)F)cc1C(F)(F)F [Example 125, 4-[4-(3,4-Dichloro-phenyl)-thiazol-2-yl]-2′,4′-bis-trifluoromethyl-biphenyl-2-carboxylic acid]"
3,1900,"Cc1cc(C(N)=O)ccc1-c1ccc(-c2nc(-c3ccc(Cl)c(Cl)c3)cs2)cc1C(=O)O [Example 78, 4′-Carbamoyl-4-[4-(3,4-dichloro-phenyl)-thiazol-2-yl]-2′-methyl-biphenyl-2-carboxylic acid]"
4,1100,"Cc1ccc(Cl)c(-c2ccc(-c3nc(-c4ccc(Cl)c(Cl)c4)cs3)cc2C(=O)O)c1 [Example 144, 2′-Chloro-4-[4-(3,4-dichloro-phenyl)-thiazol-2-yl]-5′-methyl-biphenyl-2-carboxylic acid]"
5,2200,"O=C(O)c1cc(-c2nc(-c3ccc(Cl)c(Cl)c3)cs2)ccc1-c1ccsc1Cl [Example 145, 2-(2-Chloro-thiophen-3-yl)-5-[4-(3,4-dichloro-phenyl)-thiazol-2-yl]-benzoic acid]"
6,1800,"O=C(O)c1cc(-c2nc(-c3ccc(Cl)c(Cl)c3)cs2)ccc1-c1cc(F)ccc1F [Example 131, 4-[4-(3,4-Dichloro-phenyl)-thiazol-2-yl]-2′,5′-difluoro-biphenyl-2-carboxylic acid]"
7,1300,"COc1cccc(CNC(=O)c2ccc(-c3ccc(-c4nc(-c5ccc(Cl)c(Cl)c5)cs4)cc3C(=O)O)cc2)c1 [Example 65, 4-[4-(3,4-Dichloro-phenyl)-thiazol-2-yl]-4′-(3-methoxy-benzylcarbamoyl)-biphenyl-2-carboxylic acid]"
8,1100,"O=C(O)c1cc(-c2nc(-c3ccc(Cl)c(Cl)c3)cs2)ccc1-c1cc(C(F)(F)F)ccc1Cl [Example 128, 2′-Chloro-4-[4-(3,4-dichloro-phenyl)-thiazol-2-yl]-5′-trifluoromethyl-biphenyl-2-carboxylic acid]"
9,2100,"O=C(NCc1cccc(F)c1)c1ccc(-c2ccc(-c3nc(-c4ccc(Cl)c(Cl)c4)cs3)cc2C(=O)O)cc1 [Example 73, 4-[4-(3,4-Dichloro-phenyl)-thiazol-2-yl]-4′-(3-fluoro-benzylcarbamoyl)-biphenyl-2-carboxylic acid]"
10,4000,"Cc1ncccc1-c1ccc(-c2nc(-c3ccc(Cl)c(Cl)c3)cs2)cc1C(=O)O [Example 98, 5-[4-(3,4-Dichloro-phenyl)-thiazol-2-yl]-2-(2-methyl-pyridin-3-yl)-benzoic acid]"
11,3800,"O=C(O)c1cc(-c2nc(-c3ccc(Cl)c(Cl)c3)cs2)ccc1-c1cccc([N+](=O)[O-])c1 [Example 46, 4-[4-(3,4-Dichloro-phenyl)-thiazol-2-yl]-3′-nitro-biphenyl-2-carboxylic acid]"
12,7700,"O=C(NC1CCOC1)c1ccc(-c2ccc(-c3nc(-c4ccc(Cl)c(Cl)c4)cs3)cc2C(=O)O)cc1 (centres unmarked) [Example 62, 4-[4-(3,4-Dichloro-phenyl)-thiazol-2-yl]-4′-(tetrahydro-furan-3-ylcarbamoyl)-biphenyl-2-carboxylic acid]"
13,9700,"COc1cccc(-c2ccc(-c3nc(-c4ccc(Cl)c(Cl)c4)cs3)cc2C(=O)O)n1 [Example 85, 5-[4-(3,4-Dichloro-phenyl)-thiazol-2-yl]-2-(6-methoxy-pyridin-2-yl)-benzoic acid]"
14,3000,"O=C(O)c1cc(-c2nc(-c3ccc(Cl)c(Cl)c3)cs2)ccc1-c1ccc(F)cn1 [Example 100, 5-[4-(3,4-Dichloro-phenyl)-thiazol-2-yl]-2-(5-fluoro-pyridin-2-yl)-benzoic acid]"
15,3700,"NC(=O)c1ccc(Cl)c(-c2ccc(-c3nc(-c4ccc(Cl)c(Cl)c4)cs3)cc2C(=O)O)c1 [Example 109, 5′-Carbamoyl-2′-chloro-4-[4-(3,4-dichloro-phenyl)-thiazol-2-yl]-biphenyl-2-carboxylic acid]"
16,4000,"O=C(O)c1cc(-c2nc(-c3ccc(Br)cc3)cs2)ccc1-c1ccccc1[N+](=O)[O-] [Example 27, 4-[4-(4-Bromo-phenyl)-thiazol-2-yl]-2′-nitro-biphenyl-2-carboxylic acid]"
17,6100,"O=C(O)c1ccc(-c2ccc(-c3nc(-c4ccc(Cl)c(Cl)c4)cs3)cc2C(=O)O)c(F)c1 [Example 121, 4-[4-(3,4-Dichloro-phenyl)-thiazol-2-yl]-2′-fluoro-biphenyl-2,4′-dicarboxylic acid]"
18,2500,"O=C(NCc1ccccc1F)c1ccc(-c2ccc(-c3nc(-c4ccc(Cl)c(Cl)c4)cs3)cc2C(=O)O)cc1 [Example 74, 4-[4-(3,4-Dichloro-phenyl)-thiazol-2-yl]-4′-(2-fluoro-benzylcarbamoyl)-biphenyl-2-carboxylic acid]"

row,IC50 [nM],SMILES
1,1700,"Cc1cccc(CNC(=O)c2ccc(-c3ccc(-c4nc(-c5ccc(Cl)c(Cl)c5)cs4)cc3C(=O)O)cc2)c1 [Example 70, 4-[4-(3,4-Dichloro-phenyl)-thiazol-2-yl]-4′-(3-methyl-benzylcarbamoyl)-biphenyl-2-carboxylic acid]"
2,1700,"O=C(O)c1cc(-c2nc(-c3ccc(Cl)c(Cl)c3)cs2)ccc1-c1ccc(Cl)cc1 [Example 147, 4′-Chloro-4-[4-(3,4-dichloro-phenyl)-thiazol-2-yl]-biphenyl-2-carboxylic acid]"
3,1200,"O=C(O)c1cc(-c2nc(-c3ccc(Cl)c(Cl)c3)cs2)ccc1-c1cnc(O)nc1 [Example 84, 5-[4-(3,4-Dichloro-phenyl)-thiazol-2-yl]-2-(2-hydroxy-pyrimidin-5-yl)-benzoic acid]"
4,2500,"O=C(O)c1cc(-c2nc(-c3cc(C(F)(F)F)cc(C(F)(F)F)c3)cs2)ccc1-c1ccccc1[N+](=O)[O-] [Example 8, 4-[4-(3,5-Bis-trifluoromethyl-phenyl)-thiazol-2-yl]-2′-nitro-biphenyl-2-carboxylic acid]"
5,5000,"O=C(O)c1cc(-c2nc(-c3ccc(F)c(Cl)c3)cs2)ccc1-c1ccccc1[N+](=O)[O-] [Example 18, 4-[4-(3-Chloro-4-fluoro-phenyl)-thiazol-2-yl]-2′-nitro-biphenyl-2-carboxylic acid]"
6,1700,"N#Cc1ccc(-c2ccc(-c3nc(-c4ccc(Cl)c(Cl)c4)cs3)cc2C(=O)O)cc1Cl [Example 114, 3′-Chloro-4′-cyano-4-[4-(3,4-dichloro-phenyl)-thiazol-2-yl]-biphenyl-2-carboxylic acid]"
7,4400,"O=C(O)c1cc(-c2nc(-c3ccc(Br)s3)cs2)ccc1-c1ccccc1[N+](=O)[O-] [Example 25, 4-[4-(5-Bromo-thiophen-2-yl)-thiazol-2-yl]-2′-nitro-biphenyl-2-carboxylic acid]"
8,2300,"O=C(NCc1ccccc1)c1ccc(-c2ccc(-c3nc(-c4ccc(Cl)c(Cl)c4)cs3)cc2C(=O)O)cc1 [Example 76, 4′-Benzylcarbamoyl-4-[4-(3,4-dichloro-phenyl)-thiazol-2-yl]-biphenyl-2-carboxylic acid]"
9,5200,"O=C(O)c1cc(-c2nc(-c3ccc(Cl)cc3)cs2)ccc1-c1ccccc1[N+](=O)[O-] [Example 13, 4-[4-(4-Chloro-phenyl)-thiazol-2-yl]-2′-nitro-biphenyl-2-carboxylic acid]"
10,2400,"O=C(O)c1cc(-c2nc(-c3ccc(C(F)(F)F)cc3)cs2)ccc1-c1ccccc1[N+](=O)[O-] [Example 7, 2′-Nitro-4-[4-(4-trifluoromethyl-phenyl)-thiazol-2-yl]-biphenyl-2-carboxylic acid]"
11,> 80000,"O=C(O)c1cc(-c2nc(-c3cccnc3)cs2)ccc1-c1ccccc1[N+](=O)[O-] [Example 38, 2′-Nitro-4-(4-pyridin-3-yl-thiazol-2-yl)-biphenyl-2-carboxylic acid]"
12,3400,"O=C(O)c1cc(-c2nc(-c3ccc(Cl)c(Cl)c3)cs2)ccc1-c1cc(O)ccc1Cl [Example 95, 2′-Chloro-4-[4-(3,4-dichloro-phenyl)-thiazol-2-yl]-5′-hydroxy-biphenyl-2-carboxylic acid]"
13,2000,"CCOc1ccc(-c2ccc(-c3nc(-c4ccc(Cl)c(Cl)c4)cs3)cc2C(=O)O)c(Cl)c1 [Example 89, 2′-Chloro-4-[4-(3,4-dichloro-phenyl)-thiazol-2-yl]-4′-ethoxy-biphenyl-2-carboxylic acid]"
14,5500,"O=Cc1ccccc1-c1ccc(-c2nc(-c3ccc(Cl)c(Cl)c3)cs2)cc1C(=O)O [Example 123, 4-[4-(3,4-Dichloro-phenyl)-thiazol-2-yl]-2′-formyl-biphenyl-2-carboxylic acid]"
15,9600,"O=C(NCCc1cccnc1)c1ccc(-c2ccc(-c3nc(-c4ccc(Cl)c(Cl)c4)cs3)cc2C(=O)O)cc1 [Example 66, 4-[4-(3,4-Dichloro-phenyl)-thiazol-2-yl]-4′-(2-pyridin-3-yl-ethylcarbamoyl)-biphenyl-2-carboxylic acid]"
16,> 80000,"O=C(O)c1cc(-c2nc(-c3ccncc3)cs2)ccc1-c1ccccc1[N+](=O)[O-] [Example 39, 2′-Nitro-4-(4-pyridin-4-yl-thiazol-2-yl)-biphenyl-2-carboxylic acid]"
17,23000,"O=C(O)c1cc(-c2nc(-c3ccccc3C(F)(F)F)cs2)ccc1-c1ccccc1[N+](=O)[O-] [Example 5, 2′-Nitro-4-[4-(2-trifluoromethyl-phenyl)-thiazol-2-yl]-biphenyl-2-carboxylic acid]"
